What was measured:
[1] = test system: transplantation tumor of human gastric cancer cell MGC-803 carcinoma in situ; assay: Bioluminescence detection (IVIS small animal live imaging) and necropsy of orthotopic MGC-803 tumour in nude mice; assay type: in vivo, BALB/c nude mice
Excerpt: (§1) In one embodiment of the present invention, according to the “Technical Guidelines for Non-Clinical Studies of Cytotoxic Antitumor Drugs” and “Guidelines for Pharmacodynamics of Antitumor Drugs”, IVIS Kinetics (a small animal live imaging system) was used to dynamically analyze the therapeutic effect of rhCNB for injection on the BALB/c nude mice bearing the human gastric cancer cell MGC-803 carcinoma in situ. Firstly, a BALB/c nude mouse model bearing subcutaneous transplantation tumor of human gastric cancer cell MGC-803 was established, and then a BALB/c nude mouse model bearing transplantation tumor in situ of human gastric cancer cell MGC-803 was established. […] Each experimental group is administered once daily for 15 consecutive days, except that the positive control high-dose administration group of cisplatin for injection is administered for 5 days. […] Animals were examined once using Caliper IVIS Kinetics (small animal live imaging system) before the first administration (on the administration day), every other 3 days after the first administration and on the 7th day after the last administration, respectively, and body weight was measured before each examination. At the end of the last examination, animals were sacrificed and roughly necropsied, and organs inoculated with tumor (including tumor tissues) were removed for pathological examination and immunohistochemical assay of apoptosis.
Human gastric cancer cell MGC-803 was routinely cultured in vitro, digested, centrifuged, and then prepared into a cell suspension with a concentration of approximately 1×10^7 cells/mL. The cells were inoculated subcutaneously into the right armpit of mice at an amount of 0.2 mL/mouse.
Well-grown subcutaneously transplanted tumors were removed and cut into tumor tissue blocks with a size of approximately 2×2×1 mm for use. Animals to be inoculated were feed 12 hours before surgical operation and subjected to gas anesthesia with isoflurane. The anaesthetized animals were placed in supine position. The skin 2˜5 mm below the xiphoid process was cut horizontally layer-by-layer on the left side to give an opening of about 1 cm. Stomach was pull out gently using a pincette and exposed. The tumor tissue block was placed above the side near the pylorus of greater curvature of stomach of the nude mice with surgical suture #1 by “purse-string suture”, so that the tumor tissue block was wrapped therein. The skin was sutured layer by layer and disinfected by Entoiodine, and then the animals were returned back to the cage for normal feeding. 7 days after surgery, the animals were examined using the small animal live imaging system, grouped, and administrated.
The route for administration was by tail vein injection.
Animals were detected once using Caliper IVIS Kinetics small animal live imaging system at the following time point: before the first administration (on the administration day), every other 3 days after the first administration, and on the 7th day after the last administration, respectively. The body weight was measured before each detection. A substrate solution (with a concentration of 15 mg/mL) was injected intraperitoneally according to 0.1 mL/10 g body weight and a bioluminescence detection was performed 10˜15 min after injection.
The data obtained from the experiments were statistically analyzed using SPSS analysis software, and the significance of difference between the administration groups and the vehicle control group, and among each administration group was compared.

[2] = Survival of tumour-bearing animals during the experiment; assay type: in vivo, BALB/c nude mice
Excerpt: as §1
The high-, medium-, low-dose groups and progressively increasing-dose group of the test sample were administered once daily for 15 consecutive days;

[3] = SD, low-dose 1 mg/kg once daily 15 d, d3
[4] = SD, low-dose 1 mg/kg once daily 15 d, d6
[5] = SD, low-dose 1 mg/kg once daily 15 d, d9
[6] = SD, low-dose 1 mg/kg once daily 15 d, d12
[7] = SD, low-dose 1 mg/kg once daily 15 d, d15
[8] = SG, high-dose 5 mg/kg once daily 5 d, d3
[9] = SG, high-dose 5 mg/kg once daily 5 d, d6
[10] = X, 2 mg/kg once daily 15 d, d12
[11] = X, 2 mg/kg once daily 15 d, d15

N.N.[Cl][Pt][Cl] [cisplatin for injection, cisplatin]
Number of animals in which tumor is not detectable and not observed ([1]; SD, low-dose 1 mg/kg once daily 15 d, d0): 0
Number of animals in which tumor is not detectable and not observed [1, 3]: 0
Number of animals in which tumor is not detectable and not observed [1, 4]: 0
Number of animals in which tumor is not detectable and not observed [1, 5]: 0
Number of animals in which tumor is not detectable and not observed [1, 6]: 0
Number of animals in which tumor is not detectable and not observed [1, 7]: 0
Number of animals in which tumor is not detectable and not observed ([1]; SD, low-dose 1 mg/kg once daily 15 d, recovery period d7): 0
Number of animals in which tumor is not detectable and not observed ([1]; SG, high-dose 5 mg/kg once daily 5 d, d0): 0
Number of animals in which tumor is not detectable and not observed [1, 8]: 0
Number of animals in which tumor is not detectable and not observed [1, 9]: 0
Number of animals in which tumor is not detectable and not observed ([1]; SG, high-dose 5 mg/kg once daily 5 d, d9): 0
Number of animals in which tumor is not detectable and not observed ([1]; SG, high-dose 5 mg/kg once daily 5 d, d12): 0
Number of animals in which tumor is not detectable and not observed ([1]; SG, high-dose 5 mg/kg once daily 5 d, d15): 0
Number of animals in which tumor is not detectable and not observed ([1]; SG, high-dose 5 mg/kg once daily 5 d, recovery period d7): 0
bioluminescence detection data ([1]; positive control high-dose group 5 mg/kg, after the 6th day administration): sharp increase
number of surviving animals ([2]; SD, low-dose 1 mg/kg once daily 15 d, d0 before administration): (10)
number of surviving animals [2, 3]: (10)
number of surviving animals [2, 4]: (10)
number of surviving animals [2, 5]: (10)
number of surviving animals [2, 6]: (10)
number of surviving animals [2, 7]: (9)
number of surviving animals ([2]; SD, low-dose 1 mg/kg once daily 15 d, d21 (7th day after last administration)): (4)
number of surviving animals ([2]; SG, high-dose 5 mg/kg once daily 5 d, d0 before administration): (10)
number of surviving animals [2, 8]: (10)
number of surviving animals [2, 9]: (10)
cause of death of the animals ([2]; during the experiment, preliminarily believed): mainly due to drug toxicity

CC[C@@]1(O)C(=O)OCc2c1cc1n(c2=O)Cc2cc3cc(O)ccc3nc2-1 [hydroxycamptothecin for injection, hydroxycamptothecin]
Number of animals in which tumor is not detectable and not observed ([1]; X, 2 mg/kg once daily 15 d, d0): 0
Number of animals in which tumor is not detectable and not observed ([1]; X, 2 mg/kg once daily 15 d, d3): 0
Number of animals in which tumor is not detectable and not observed ([1]; X, 2 mg/kg once daily 15 d, d6): 0
Number of animals in which tumor is not detectable and not observed ([1]; X, 2 mg/kg once daily 15 d, d9): 0
Number of animals in which tumor is not detectable and not observed [1, 10]: 0
Number of animals in which tumor is not detectable and not observed [1, 11]: 0
Number of animals in which tumor is not detectable and not observed ([1]; X, 2 mg/kg once daily 15 d, recovery period d7): 0
number of surviving animals ([2]; X, 2 mg/kg once daily 15 d, d0 before administration): (10)
number of surviving animals ([2]; X, 2 mg/kg once daily 15 d, d3): (10)
number of surviving animals ([2]; X, 2 mg/kg once daily 15 d, d6): (9)
number of surviving animals ([2]; X, 2 mg/kg once daily 15 d, d9): (9)
number of surviving animals [2, 10]: (9)
number of surviving animals [2, 11]: (9)
number of surviving animals ([2]; X, 2 mg/kg once daily 15 d, d21 (7th day after last administration)): (7)
